In general, EC50 refers to the concentration that produces a half-maximal response. Lower therefore signals a more potent agent.

The target of test [1] is T1, mouse GLP-1 receptor (Mus musculus, UniProt O35659).
T1 sequence (O35659 22-463): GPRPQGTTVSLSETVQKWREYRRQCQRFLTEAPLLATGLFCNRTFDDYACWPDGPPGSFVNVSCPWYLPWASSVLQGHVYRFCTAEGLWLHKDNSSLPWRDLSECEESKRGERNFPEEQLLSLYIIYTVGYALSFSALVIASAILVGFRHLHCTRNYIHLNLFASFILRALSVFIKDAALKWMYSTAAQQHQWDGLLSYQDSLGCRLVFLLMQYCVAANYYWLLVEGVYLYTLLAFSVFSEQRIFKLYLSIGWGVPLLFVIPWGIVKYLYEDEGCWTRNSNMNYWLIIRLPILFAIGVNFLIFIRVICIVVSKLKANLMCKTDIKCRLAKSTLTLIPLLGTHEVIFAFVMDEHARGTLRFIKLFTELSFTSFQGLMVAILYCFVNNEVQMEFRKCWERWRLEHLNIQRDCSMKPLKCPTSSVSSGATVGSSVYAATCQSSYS
Put plainly: cell-based. Conditions: for Emax: 14: experiment 1.

Test [2] has as its target T1, mouse GLP-1 receptor. Particulars: for Potency (%), percentage of potency compare to GLP-1-G^2: cAMP production, from EC50. A general note: cAMP levels reflect the balance of adenylyl cyclase and phosphodiesterase activity.
The mark [3] stands for this setting: read-out: Top (best-fit value), variable slope four-parameter fit, unconstrained.
[4] abbreviates: read-out: Top (best-fit value), fit with BOTTOM = 0%.

Read-outs that look alike come from different tables or passages of the source. Starred links: 1 amine or outer side, 2 acyl side, 3 side chain; linkers in the order of their positions; H or OH if unused. Positions of bridges follow the written chain, without caps; N, C: chain ends. Residues, ends and D or L forms follow the SMILES beside them. Chains are numbered I, II in the order given. X1 = C[C@@H](CNC(=O)N[C@@H](C)CNC(=O)[*:2])NC(=O)NC[C@H](C)N[*:1]; X5 = C[C@@H](CNC(=O)N[C@@H](C)CNC(=O)[*:1])NC(=O)NC[C@H](C)N[*:2] Bounds are passed on as bounds.

In turn, `CC[C@H](C)[C@H](NC(=O)[C@H](Cc1ccccc1)NC(=O)[C@H](CCC(=O)O)NC(=O)[C@H](CCCCN)NC(=O)[C@H](C)NC(=O)[C@H](C)NC(=O)[C@H](CCC(N)=O)NC(=O)CNC(=O)[C@H](CCC(=O)O)NC(=O)[C@H](CC(C)C)NC(=O)NC[C@H](C)NC(=O)NC[C@H](C)NC(=O)NC[C@H](C)NC(=O)[C@H](CC(=O)O)NC(=O)[C@H](CO)NC(=O)[C@@H](NC(=O)[C@H](Cc1ccccc1)NC(=O)[C@@H](NC(=O)CNC(=O)[C@H](CCC(=O)O)NC(=O)CNC(=O)[C@@H](N)Cc1c[nH]cn1)[C@@H](C)O)[C@@H](C)O)C(=O)N[C@@H](C)C(=O)N[C@@H](Cc1c[nH]c2ccccc12)C(=O)N[C@@H](CC(C)C)C(=O)N[C@H](C(=O)N[C@@H](CCCCN)C(=O)NCC(=O)N[C@@H](CCCNC(=N)N)C(=O)NCC(N)=O)C(C)C` [compound 3, GG2[A^uA^uA^u]^10-13] gave a concentration giving a half-maximal response (EC50) on mouse GLP-1 receptor [1] of 650 nM. Also, the Emax on mouse GLP-1 receptor [1] (setting [3]) was 91.6%. For the same molecule, at mouse GLP-1 receptor [2], the “LogEC50 (best-fit value)” value is -6.187 and the “Potency (%), percentage of potency compare to GLP-1-G^2” value (“Potency (%), percentage” for short) was 0.04%.

Molecule `CC[C@H](C)[C@H](NC(=O)[C@H](Cc1ccccc1)NC(=O)[C@H](CCC(=O)O)NC(=O)[C@H](CCCCN)NC(=O)[C@H](C)NC(=O)[C@H](C)NC(=O)[C@H](CCC(N)=O)NC(=O)CNC(=O)[C@H](CCC(=O)O)NC(=O)NC[C@H](C)NC(=O)NC[C@H](C)NC(=O)NC[C@H](C)NC(=O)[C@@H](NC(=O)[C@H](CC(=O)O)NC(=O)[C@H](CO)NC(=O)[C@@H](NC(=O)[C@H](Cc1ccccc1)NC(=O)[C@@H](NC(=O)CNC(=O)[C@H](CCC(=O)O)NC(=O)CNC(=O)[C@@H](N)Cc1c[nH]cn1)[C@@H](C)O)[C@@H](C)O)C(C)C)C(=O)N[C@@H](C)C(=O)N[C@@H](Cc1c[nH]c2ccccc12)C(=O)N[C@@H](CC(C)C)C(=O)N[C@H](C(=O)N[C@@H](CCCCN)C(=O)NCC(=O)N[C@@H](CCCNC(=N)N)C(=O)NCC(N)=O)C(C)C` [compound 4, GG2[A^uA^uA^u]^11-14] registered an EC50 on mouse GLP-1 receptor [1] of 97 nM. Also, at mouse GLP-1 receptor [1] (setting [3]), the Emax worked out at 81.8%. Further, on mouse GLP-1 receptor [2], the “LogEC50 (best-fit value)” value is given as -7.014 and the “Potency (%), percentage” value was found to be 0.2%.

`CC[C@H](C)[C@H](NC(=O)[C@H](Cc1ccccc1)NC(=O)[C@H](CCC(=O)O)NC(=O)[C@H](CCCCN)NC(=O)[C@H](C)NC(=O)[C@H](C)NC(=O)[C@H](CCC(N)=O)NC(=O)CNC(=O)NC[C@H](C)NC(=O)NC[C@H](C)NC(=O)NC[C@H](C)NC(=O)[C@H](CO)NC(=O)[C@@H](NC(=O)[C@H](CC(=O)O)NC(=O)[C@H](CO)NC(=O)[C@@H](NC(=O)[C@H](Cc1ccccc1)NC(=O)[C@@H](NC(=O)CNC(=O)[C@H](CCC(=O)O)NC(=O)CNC(=O)[C@@H](N)Cc1c[nH]cn1)[C@@H](C)O)[C@@H](C)O)C(C)C)C(=O)N[C@@H](C)C(=O)N[C@@H](Cc1c[nH]c2ccccc12)C(=O)N[C@@H](CC(C)C)C(=O)N[C@H](C(=O)N[C@@H](CCCCN)C(=O)NCC(=O)N[C@@H](CCCNC(=N)N)C(=O)NCC(N)=O)C(C)C` [compound 6, GG2[A^uA^uA^u]^12-15] had an EC50 on mouse GLP-1 receptor [1] above 10000 nM. Moreover, the Emax on mouse GLP-1 receptor [1] (setting [4]) was 6.08%; at mouse GLP-1 receptor [1] (setting [3]), 6.19%. Also, the “Potency (%), percentage” value on mouse GLP-1 receptor [2] was below 0.01%.

For the molecule `CC[C@H](C)[C@H](NC(=O)[C@H](Cc1ccccc1)NC(=O)[C@H](CCC(=O)O)NC(=O)[C@H](CCCCN)NC(=O)[C@H](C)NC(=O)[C@H](C)NC(=O)[C@H](CCC(N)=O)NC(=O)NC[C@H](C)NC(=O)NC[C@H](C)NC(=O)NC[C@H](C)NC(=O)[C@H](CO)NC(=O)[C@H](CO)NC(=O)[C@@H](NC(=O)[C@H](CC(=O)O)NC(=O)[C@H](CO)NC(=O)[C@@H](NC(=O)[C@H](Cc1ccccc1)NC(=O)[C@@H](NC(=O)CNC(=O)[C@H](CCC(=O)O)NC(=O)CNC(=O)[C@@H](N)Cc1c[nH]cn1)[C@@H](C)O)[C@@H](C)O)C(C)C)C(=O)N[C@@H](C)C(=O)N[C@@H](Cc1c[nH]c2ccccc12)C(=O)N[C@@H](CC(C)C)C(=O)N[C@H](C(=O)N[C@@H](CCCCN)C(=O)NCC(=O)N[C@@H](CCCNC(=N)N)C(=O)NCC(N)=O)C(C)C` [compound 7, GG2[A^uA^uA^u]^13-16] (I: QAAKEFIAWLVKGRG-NH2 / II: H-HGEGTFTSDVSS; linker I:N-II:C via X5), the EC50 on mouse GLP-1 receptor [1] is above 10000 nM. Further, the Emax on mouse GLP-1 receptor [1] (setting [3]) is around 208%.

Turning to `CC[C@H](C)[C@H](NC(=O)[C@H](Cc1ccccc1)NC(=O)[C@H](CCC(=O)O)NC(=O)[C@H](CCCCN)NC(=O)[C@H](C)NC(=O)[C@H](C)NC(=O)NC[C@H](C)NC(=O)NC[C@H](C)NC(=O)NC[C@H](C)NC(=O)[C@H](Cc1ccc(O)cc1)NC(=O)[C@H](CO)NC(=O)[C@H](CO)NC(=O)[C@@H](NC(=O)[C@H](CC(=O)O)NC(=O)[C@H](CO)NC(=O)[C@@H](NC(=O)[C@H](Cc1ccccc1)NC(=O)[C@@H](NC(=O)CNC(=O)[C@H](CCC(=O)O)NC(=O)CNC(=O)[C@@H](N)Cc1c[nH]cn1)[C@@H](C)O)[C@@H](C)O)C(C)C)C(=O)N[C@@H](C)C(=O)N[C@@H](Cc1c[nH]c2ccccc12)C(=O)N[C@@H](CC(C)C)C(=O)N[C@H](C(=O)N[C@@H](CCCCN)C(=O)NCC(=O)N[C@@H](CCCNC(=N)N)C(=O)NCC(N)=O)C(C)C` [compound 8, GG2[A^uA^uA^u]^14-17] (I: AAKEFIAWLVKGRG-NH2 / II: H-HGEGTFTSDVSSY; linker I:N-II:C via X5), on mouse GLP-1 receptor [1], the EC50 is 353 nM. At mouse GLP-1 receptor [1] (setting [3]), the Emax was 73.4%. At mouse GLP-1 receptor [2], the “LogEC50 (best-fit value)” value is -6.452 and the “Potency (%), percentage” value was 0.07%.

Molecule `CC[C@H](C)[C@H](NC(=O)[C@H](Cc1ccccc1)NC(=O)[C@H](CCC(=O)O)NC(=O)[C@H](CCCCN)NC(=O)[C@H](C)NC(=O)NC[C@H](C)NC(=O)NC[C@H](C)NC(=O)NC[C@H](C)NC(=O)[C@H](CC(C)C)NC(=O)[C@H](Cc1ccc(O)cc1)NC(=O)[C@H](CO)NC(=O)[C@H](CO)NC(=O)[C@@H](NC(=O)[C@H](CC(=O)O)NC(=O)[C@H](CO)NC(=O)[C@@H](NC(=O)[C@H](Cc1ccccc1)NC(=O)[C@@H](NC(=O)CNC(=O)[C@H](CCC(=O)O)NC(=O)CNC(=O)[C@@H](N)Cc1c[nH]cn1)[C@@H](C)O)[C@@H](C)O)C(C)C)C(=O)N[C@@H](C)C(=O)N[C@@H](Cc1c[nH]c2ccccc12)C(=O)N[C@@H](CC(C)C)C(=O)N[C@H](C(=O)N[C@@H](CCCCN)C(=O)NCC(=O)N[C@@H](CCCNC(=N)N)C(=O)NCC(N)=O)C(C)C` [compound 10, GG2[A^uA^uA^u]^15-18] (I: H-HGEGTFTSDVSSYL / II: AKEFIAWLVKGRG-NH2; linker I:C-II:N via X1) had an EC50 at mouse GLP-1 receptor [1] of 123 nM. For the same molecule, the Emax at mouse GLP-1 receptor [1] (setting [3]) turned out to be 61.5%. On mouse GLP-1 receptor [2], the “LogEC50 (best-fit value)” value is given as -6.91 and the “Potency (%), percentage” value is recorded as 0.2%.

In the case of `CC[C@H](C)[C@H](NC(=O)[C@H](Cc1ccccc1)NC(=O)[C@H](CCC(=O)O)NC(=O)[C@H](CCCCN)NC(=O)NC[C@H](C)NC(=O)NC[C@H](C)NC(=O)NC[C@H](C)NC(=O)[C@H](CCC(=O)O)NC(=O)[C@H](CC(C)C)NC(=O)[C@H](Cc1ccc(O)cc1)NC(=O)[C@H](CO)NC(=O)[C@H](CO)NC(=O)[C@@H](NC(=O)[C@H](CC(=O)O)NC(=O)[C@H](CO)NC(=O)[C@@H](NC(=O)[C@H](Cc1ccccc1)NC(=O)[C@@H](NC(=O)CNC(=O)[C@H](CCC(=O)O)NC(=O)CNC(=O)[C@@H](N)Cc1c[nH]cn1)[C@@H](C)O)[C@@H](C)O)C(C)C)C(=O)N[C@@H](C)C(=O)N[C@@H](Cc1c[nH]c2ccccc12)C(=O)N[C@@H](CC(C)C)C(=O)N[C@H](C(=O)N[C@@H](CCCCN)C(=O)NCC(=O)N[C@@H](CCCNC(=N)N)C(=O)NCC(N)=O)C(C)C` [compound 12, GG2[A^uA^uA^u]^16-19], on mouse GLP-1 receptor [1], the concentration for a half-maximal effect (EC50) is 240 nM. The Emax on mouse GLP-1 receptor [1] (setting [3]) amounted to 65%. Further, at mouse GLP-1 receptor [2], the “LogEC50 (best-fit value)” value is recorded as -6.619 and the “Potency (%), percentage” value is on record as 0.1%.

Regarding `CC[C@H](C)[C@H](NC(=O)NC[C@H](C)NC(=O)NC[C@H](C)NC(=O)NC[C@H](C)NC(=O)[C@H](C)NC(=O)[C@H](CCC(N)=O)NC(=O)CNC(=O)[C@H](CCC(=O)O)NC(=O)[C@H](CC(C)C)NC(=O)[C@H](Cc1ccc(O)cc1)NC(=O)[C@H](CO)NC(=O)[C@H](CO)NC(=O)[C@@H](NC(=O)[C@H](CC(=O)O)NC(=O)[C@H](CO)NC(=O)[C@@H](NC(=O)[C@H](Cc1ccccc1)NC(=O)[C@@H](NC(=O)CNC(=O)[C@H](CCC(=O)O)NC(=O)CNC(=O)[C@@H](N)Cc1c[nH]cn1)[C@@H](C)O)[C@@H](C)O)C(C)C)C(=O)N[C@@H](C)C(=O)N[C@@H](Cc1c[nH]c2ccccc12)C(=O)N[C@@H](CC(C)C)C(=O)N[C@H](C(=O)N[C@@H](CCCCN)C(=O)NCC(=O)N[C@@H](CCCNC(=N)N)C(=O)NCC(N)=O)C(C)C` [compound 15, GG2[A^uA^uA^u]^19-22] (I: H-HGEGTFTSDVSSYLEGQA / II: IAWLVKGRG-NH2; linker I:C-II:N via X1), the EC50 at mouse GLP-1 receptor [1] is above 10000 nM. For the same molecule, the Emax at mouse GLP-1 receptor [1] (setting [4]) is around 538%; on mouse GLP-1 receptor [1] (setting [3]), 92.7%.

These data come from paper PMC6389962 (Nature Communications, 2019).
